Experimental findings from patent US7709479B1, “Quinazoline derivatives and their use as pharmaceuticals” (AstraZeneca, priority 1999, dated 2010) are described below.

Experiment [1] relates to MCF-7 cells. Nature of the experiment: In vitro cell proliferation assay, Assay 2 (BrdU incorporation). Type of experiment: cell-based. Conditions: Homo sapiens, MCF7; MCF-7, 48 hours with compound, 2 hour labelling; read-out: concentration giving 50% inhibition of BrdU incorporation.
The subject of experiment [2] is MCF-7 cells. The experiment can be described thus: In vitro cell proliferation assay, Assay 1 (CyQUANT cell density). Type of experiment: cell-based. Conditions: Homo sapiens, MCF7, 72 h; MCF-7, 3 days with compound; read-out: concentration giving 50% inhibition of cell proliferation. An excerpt: (b) In Vitro Cell Proliferation Assay
These and other assays can be used to determine the ability of a test compound to inhibit the growth of adherent mammalian cell lines, for example the human tumour cell line MCF7.
Assay 1: MCF-7 (ATCC HTB-22) or other adherent cells were typically seeded at 1×10^3 cells per well (excluding the peripheral wells) in DMEM (Sigma Aldrich) without phenol red, plus 10% foetal calf serum, 1% L-glutamine and 1% penicillin/streptomycin in 96 well tissue culture treated clear plates (Costar). The following day (day 1), the media was removed from a no treatment control plate and the plate stored at −80° C. The remaining plates were dosed with compound (diluted from 10 mM stock in DMSO using DMEM (without phenol red, 10% FCS, 1% L-glutamine, 1% penicillin/streptomycin). Untreated control wells were included on each plate. After 3 days in the presence/absence of compound (day 4) the media was removed and the plates stored at −80° C. Twenty four hours later the plates were thawed at room temperature and cell density determined using the CyQUANT cell proliferation assay kit (c-7026/c-7027 Molecular Probes Inc.) according to manufacturers directions. Briefly, 200 μl of a cell lysis/dye mixture (10 μl of 20× cell lysis buffer B, 190 μl of sterile water, 0.25 μl of CyQUANT GR dye) was added to each well and the plates incubated at room temperature for 5 minutes in the dark. The fluorescence of the wells was then measured using a fluorescence microplate reader (gain 70, 2 reads per well, 1 cycle with excitation 485 nm and emission 530 nm using a CytoFluor plate reader (PerSeptive Biosystems Inc.)). The values from day 1 and day 4 (compound treated) together with the values from the untreated cells were used to determine the dilution range of a test compound that gave 50% inhibition of cell proliferation. Compound no. 1 in Table 1 was effective in this test at 8.03 μM and compound no. 101 in Table 4 was effective in this test at 1.06 μM. […] The optical density of the wells was then determined at 690 nm wavelength using a Titertek Multiscan plate reader. […]

Experiment [3] deals with MCF7 cells. Nature of the experiment: In vitro cell cycle analysis assay (FACS DNA content). Conditions: 24 hours. The class given is cell-based, human. As for the experimental part:
This assay determines the ability of a test compound to arrest cells in specific phases of the cell cycle. Many different mammalian cell lines could be used in this assay and MCF7 cells are included here as an example. MCF-7 cells were seeded at 3×10^5 cells per T25 flask (Costar) in 5 ml DMEM (no phenol red 10% FCS, 1% L-glutamine 1% penicillin/streptomycin). Flasks were then incubated overnight in a humidified 37° C. incubator with 5% CO2. The following day 1 ml of DMEM (no phenol red 10% FCS, 1% L-glutamine 1% penicillin/streptomycin) carrying the appropriate concentration of test compound solubilised in DMSO was added to the flask. A no compound control treatments was also included (0.5% DMSO). The cells were then incubated for a defined time (usually 24 hours) with compound. After this time the media was aspirated from the cells and they were washed with 5 ml of prewarmed (37° C.) sterile PBSA, then detached from the flask by brief incubation with trypsin and followed by resuspension in 10 ml of 1% Bovine Serum Albumin (BSA, Sigma-Aldrich Co.) in sterile PBSA. The samples were then centrifuged at 2200 rpm for 10 min. The supernatant was aspirated and the cell pellet was resuspended in 200 μl of 0.1% (w/v) Tris sodium citrate, 0.0564% (w/v) NaCl, 0.03% (v/v) Nonidet NP40, [pH 7.6]. Propridium Iodide (Sigma Aldrich Co.) was added to 40 μg/ml and RNAase A (Sigma Aldrich Co.) to 100 μg/ml. The cells were then incubated at 37° C. for 30 minutes. The samples were centrifuged at 2200 rpm for 10 min, the supernatant removed and the remaining pellet (nuclei) resuspended in 200 μl of sterile PBSA. Each sample was then syringed 10 times using 21 gauge needle. The samples were then transferred to LPS tubes and DNA content per cell analysed by Fluorescence activated cell sorting (FACS) using a FACScan flow cytometer (Becton Dickinson). Typically 25000 events were counted and recorded using CellQuest v1.1 software (Verity Software). Cell cycle distribution of the population was calculated using Modfit software (Verity Software) and expressed as percentage of cells in G0/G1, S and G2/M phases of the cell cycle.

For `COc1cc2ncnc(Nc3ccc(NC(=O)c4ccccc4)cc3)c2cc1OC` [Compound 1], the IC50 in experiment [1] was found to be 1240 nM. Further, in experiment [2], the IC50 was determined as 8030 nM. In addition, in experiment [3] (25 μM), the “% Cells in G1” value worked out at 25.82%, the “% Cells in G2/M” value was found to be 56.47% and the “% Cells in S” value stood at 17.71%.

As for `COc1cc2c(Nc3ccc(NC(=O)c4ccccc4)cc3)ncnc2cc1OCCCN1CCOCC1` [Compound 101], in experiment [1], the IC50 was 159 to 209 nM. Moreover, the IC50 in experiment [2] was found to be 1060 nM. Also, in experiment [3] (2.12 μM), the “% Cells in G1” value is 19.69%, the “% Cells in G2/M” value came to 68.21% and the “% Cells in S” value amounted to 12.4%.

For the compound `COc1cc2ncnc(Nc3ccc(C(=O)NCc4ccc(F)cc4)cc3)c2cc1OC` [Compound 557], the IC50 in experiment [2] turned out to be 1570 nM.
